In patent US20220267271A1, “WNT ACTIVATORS AND METHODS OF USE” (MAYO FOUNDATION FOR MEDICAL EDUCATION AND RESEARCH, priority 2019, published 2022):

What was measured:
[1] = tested on: tau; assay: Tau phosphorylation in N2a cells by Western blotting; assay type: cell-based; conditions: 0.8 and 1.6 μM, 24 h
Procedure: N2a cells were treated with 1011 at the indicated concentrations for 24 h. (A) the levels of β-catenin, tau and tau phosphorylation were examined by Western blotting. (B) the intensity of the tau phosphorylation bands were quantified and normalized to the corresponding signal for total tau. The results represented in the histograms are shown as the mean±SD and are the average of 3 independent experiments. *P<0.05, **P<0.01 versus corresponding control value.
Western blotting: Cells in 6-well plates were lysed in 0.5 ml of lysis buffer (phosphate-buffered saline containing 1% Triton X-100, 1× Proteinase inhibitor cocktail Complete, and 1 mM PMSF) at 4° C. for 15 min. Equal quantities of protein were subjected to SDS-PAGE under reducing conditions. Following transfer to immobilon-P transfer membrane, successive incubations with a primary antibody, and a horseradish peroxidase-conjugated secondary antibody or IRDye® 680RD goat anti-rabbit/mouse secondary antibodies were carried out for 60-120 min at room temperature. The immunoreactive proteins were then detected using the ECL system or the Odyssey infrared imaging system (LI-COR). Films showing immunoreactive bands were scanned by Hp Scanjet 5590.

[2] = tested on: LRP6; assay: HA-LRP6 expression in HT1080 cells stably transduced with HA-LRP6, Western blot; assay type: cell-based, human; conditions: HT1080 cells stably transduced with HA-LRP6, 24 h
Procedure: (A) structures of niciosamide and CI-994; (B) HEK293 cells were transfected with Super8XTOPFlash and β galactosidase vectors along with Wnt3A or control vector. After 24 hours incubation, cells were treated with CI-994 at the indicated concentration for 24 hr. The luciferase activity was then measured and normalized to the activity of the β-galactosidase. (C) HT1080 cells stably transduced LRP6 with HA tag were treated with niciosamide and CI-994 at the indicated concentrations for 24 h. The levels of HA-LRP6 were examined by Western blot with anti-HA antibody. (D) Western blots showing the depletion of LRP6 after 2 days of transiently transfection of 50 nM LRP6 siRNA in HEK293 cells. […] The luciferase activity was then measured and normalized to β-galactosidase activity. […]
(A) HT1080 cells stably transduced with human LRP6 with HA tag were treated with niciosamide (1 μM) and other compounds as noted (1 μM) for 24 hr. […] The luciferase activity was then measured and normalized to β-galactosidase activity. […]
Western blotting: Cells in 6-well plates were lysed in 0.5 ml of lysis buffer (phosphate-buffered saline containing 1% Triton X-100, 1× Proteinase inhibitor cocktail Complete, and 1 mM PMSF) at 4° C. for 15 min. Equal quantities of protein were subjected to SDS-PAGE under reducing conditions. […]

[3] = Pharmacokinetic study in Balb/c mice following intravenous administration; assay type: in vivo; conditions: male Balb/c mice, IV 2 mg/kg
Procedure: (A) Plasma and brain concentration—time curves of 1015 in male Balb/c mice following intravenous (2 mg/kg) administration (n=4 at each time point). (B) in vivo pharmacokinetic parameters of 1015. B/P: brain/plasma concentration ratio (30 min after IV injection with 2 mg/kg) calculated using 1 g/mL brain density.
Pharmacokinetic study of compound 1015 in Balb/c mice following intravenous administration: Male Balb/c mice (11-12 weeks old, body weight 21.9 to 31.3 g and average body weight across all groups 25.6 g, SD=2.19 g) were used in this study. The animals were randomly assigned to the treatment groups before the pharmacokinetic study; all animals were fasted for 4 h before intravenous injection of 1015 at 2 mg/kg dissolved in Kolliphor HS-physiological saline (20%:80%). Eight time points (5, 15, 30, 60, 120, 240, 480 and 1440 min) were set for this pharmacokinetic study. Each of the time point treatment group included 4 animals. There was also a control group of 2 animals. Mice were injected IV with 2,2,2-tribromoethanol at the dose of 150 mg/kg prior to drawing the blood. Blood collection was performed from the orbital sinus in microtainers containing K2EDTA. Animals were sacrificed by cervical dislocation after blood samples collection. Brain and plasma samples were immediately processed, flash-frozen and stored at −70° C. until subsequent analysis.
Plasma samples (50 μl) were mixed with 200 μl of IS solution. After mixing by pipetting and centrifuging for 4 min at 6000 rpm, 2 μl of each supernatant was injected into LC-MS/MS system. Solution of compound IS-22665-01 (200 ng/ml in acetonitrile-methanol mixture, 1:1, v/v) was used as internal standard (IS) for quantification of 1015 in plasma samples. Brain samples (100 mg±1 mg) were dispersed in 500 μl of IS200(80) using zirconium oxide beads (150 mg±5 mg) in The Bullet Blender® homogenizer for 60 seconds at speed 8. […] Solution of compound IS-22665-01 (200 ng/ml in water-acetonitrile-methanol mixture, 2:4:4, v/v/v) was used as internal standard (IS200(80)) for quantification of 1015 in brain samples. […]

CC1CCCC(C)N1CCNC(=O)c1ccc(C(=O)Nc2ccccc2N)nc1 (centres unmarked) [Compound 1011]
tau phosphorylation [1]: suppressed

CC(=O)Nc1ccc(C(=O)Nc2ccccc2N)cc1 [CI-994, 4-(acetylamino)-N-(2-aminophenyl)benzamide, reference compound]
HA-LRP6 expression [2]: significantly enhanced

Nc1ccccc1NC(=O)c1ccc(C(=O)NCC2CCN2C2CCCC2)cn1 (centres unmarked) [Compound 1015]
concentration in brain versus plasma [3]: much higher concentration in brain than in plasma
half-life (t1/2), brain versus plasma [3]: much longer in brain than in plasma
Kp at 30 min ([3]; mouse, brain/plasma, 30 min after injection, read-out: brain concentration/plasma concentration ratio (B/P)): 5.6
